Where a SMILES comes first, the peptide text is derived from it.
Tested on: Human dermal fibroblast (HDF)
Test: Collagen contraction assay with human dermal fibroblasts in collagen gel
Format: cell-based
Details: 0.01 mg/ml, 24 h post detachment, without MES; basal control = 100.0, MES = 144.4
From the text: It is known that a remarkable change in the mechanical properties of the skin with aging is due to reduced contractile capacity as well as reduced migration activity of fibroblasts. Healthy fibroblasts induce contraction of the collagen network through physical interactions with collagen fibers. The collagen network is essential for maintaining the firmness of the skin. The collagen contraction assay is a well-known experimental approach to measuring the cell-induced contraction of the extracellular matrix. In this assay, the capacity of fibroblasts, embedded in a collagen-based gel, to reduce the gel diameter is evaluated.
By improving the contractile forces, the mechanical tension can be improved, which can be associated to “lifting” effect at the scale of fibroblasts.
The microcurrent system was built by coupling gold electrodes (in order to avoid medium oxidation leading to cell death when current goes through) to opposite sides of 60 mm Petri dishes (separated by 4 cm). When a voltage is applied, an electric field generates between opposite positive and negative poles and current passes through the culture. During the stimulation time (2 hours), each of the 60 mm Petri dishes is connected to a voltage source that allows regulating the amount of current that passes through each of them. For these experiments, a […] current (which corresponds to approx. 67 mV/mm) was used.
Human dermal fibroblast (HDF) cell culture and expansion: Cells were thawed in T75 flasks and the growth medium was changed every 2 days of cell culture. After 7 days, cells were expanded to obtain a total amount of 7×10^6 cells to be used in the experiments.
Once finished the expansion, cultures are trypsinized and seeded at 3×10^5 cells/60 mm Petri up to a total of 10 dishes per replicate. These ten dishes correspond to one experiment (Control/-MES vs+MES) at a specific concentration. Peptide treatment was performed at 0.01 mg/ml.
After an overnight (O/N) incubation to allow cell attachment, each Petri dish is treated at the corresponding concentration with 4 ml of specific medium for a total of 24 hours in both conditions (without MES and with MES). Peptide treatment on the dishes that are not stimulated with microcurrent is initiated 2 hours in advance, and their passage into 3D cultures occurs at the same time as the microcurrent stimulation of the other dishes. […]
Each 3D culture is prepared by mixing collagen solution with the culture medium corresponding to each of the conditions (without peptide or with peptide). […] Images of collagen gel diameter are taken of each well at 24 hours post detachment and analyzed by ImageJ. […]
[formula] • An initial area is stablished. […] Area t=0 gel […]1.86 cm^2 (Area of a well in a 24-well plate) • Quantification of Area at t=x; Ax. […]

CC(C)C[C@H](N)C(=O)N1CCC[C@H]1C(=O)N[C@H](C(=O)N[C@H](C(=O)O)[C@@H](C)O)C(C)C [PEP-1, H-Leu-Pro-Val-Thr-OH] (H-LPVT-OH)
Collagen contraction, MEAN ± SEM: 137.5 ± 7.8%

— patent US20260374809A1, “COMPOUNDS USEFUL FOR THE TREATMENT AND/OR CARE OF THE SKIN, HAIR, NAILS AND/OR MUCOUS MEMBRANES” (Lubrizol Advanced Materials, Inc., priority 2022, published 2026)
